As a reminder, the IC50 is the concentration at which inhibition is half-maximal. A low value points to greater potency in that assay.

The structures appear in SMILES notation.

The results in this text go back to patent US11912668B2, “GCN2 and perk kinase inhibitors and methods of use thereof” (Deciphera Pharmaceuticals, LLC, priority 2020, dated 2024).

One experiment concerns the target PERK kinase (Homo sapiens (Human), UniProt Q9NZJ5). The experiment in a line: Biochemical assay for PERK (coupled pyruvate kinase/lactate dehydrogenase assay). As to conditions: 1 mM ATP, rate from 2-3 h time frame. How it is done:
Activity of PERK kinase was determined spectroscopically using a coupled pyruvate kinase/lactate dehydrogenase assay that continuously monitors the ATP hydrolysis-dependent oxidation of NADH (e.g., Schindler et al. Science (2000) 289: 1938-1942). Assays were conducted in 384-well plates (100 μL final volume) using 10 nM PERK (from Beryllium), 0.25 mg/mL Myelin Basic Protein substrate, 1.5 units pyruvate kinase, 2.1 units lactate dehydrogenase, 1 mM phosphoenol pyruvate, 0.28 mM NADH and 1 mM ATP in assay buffer (100 mM Tris, pH 7.5, 15 mM MgCl2, 0.5 mM DTT, 0.004% (w/v) BSA, and 0.004% Triton X-100). Inhibition of PERK was measured by adding serial diluted test compound (final assay concentration of 1% DMSO). A decrease in absorption at 340 nm was monitored continuously for 6 hours at 30° C. on a multi-mode microplate reader (BioTek). The reaction rate was calculated using the 2-3 h time frame. The reaction rate at each concentration of compound was converted to percent inhibition using controls (i.e. reaction with no test compound and reaction with a known inhibitor) and IC50 values were calculated using software routines in Prism (GraphPad software).

The next experiment deals with GCN2 kinase (Homo sapiens (Human), UniProt Q9P2K8). The experiment in a line: Biochemical assay for GCN2 (TR-FRET kinase activity assay). As to conditions: 1 mM ATP, 3-hour incubation. How it is done: Activity of GCN2 kinase was determined using a TR-FRET kinase activity assay (e.g. Riddle et al. Analytical Biochemistry (2006) 356(1) 108-116). Assays were conducted in 384-well plates (13 μL assay volume) using 2 nM GCN2 (Carna Biosciences), 130 nM GFP-EIf2α (Invitrogen), 0.2 mg/mL E. coli tRNA (sigma) and 1 mM ATP in kinase buffer (Invitrogen). Inhibition of GCN2 was measured by adding serial diluted test compound (final assay concentration of 0.5% DMSO) followed by a 3-hour incubation. Tb-peIF2α (pSer52) antibody (Invitrogen) (2 nM final assay concentration) in kinase buffer containing ETDA (final assay concentration of 20 mM) was added. After a 60 min incubation at room temperature, TR-FRET was monitored using an excitation wavelength of 340 nm and emission wavelengths of 490 nm and 520 nm. The emission ratio (520/490) at each compound concentration of was converted to percent inhibition using controls (i.e. reaction with no test compound and reaction with a known inhibitor) and IC50 values were calculated by fitting a four-parameter sigmoidal curve to the data using Prism (GraphPad software).
A general note: In TR-FRET formats the signal depends on donor and acceptor labels being close together.

GCN2 kinase, sequence (Q9P2K8 whole entry): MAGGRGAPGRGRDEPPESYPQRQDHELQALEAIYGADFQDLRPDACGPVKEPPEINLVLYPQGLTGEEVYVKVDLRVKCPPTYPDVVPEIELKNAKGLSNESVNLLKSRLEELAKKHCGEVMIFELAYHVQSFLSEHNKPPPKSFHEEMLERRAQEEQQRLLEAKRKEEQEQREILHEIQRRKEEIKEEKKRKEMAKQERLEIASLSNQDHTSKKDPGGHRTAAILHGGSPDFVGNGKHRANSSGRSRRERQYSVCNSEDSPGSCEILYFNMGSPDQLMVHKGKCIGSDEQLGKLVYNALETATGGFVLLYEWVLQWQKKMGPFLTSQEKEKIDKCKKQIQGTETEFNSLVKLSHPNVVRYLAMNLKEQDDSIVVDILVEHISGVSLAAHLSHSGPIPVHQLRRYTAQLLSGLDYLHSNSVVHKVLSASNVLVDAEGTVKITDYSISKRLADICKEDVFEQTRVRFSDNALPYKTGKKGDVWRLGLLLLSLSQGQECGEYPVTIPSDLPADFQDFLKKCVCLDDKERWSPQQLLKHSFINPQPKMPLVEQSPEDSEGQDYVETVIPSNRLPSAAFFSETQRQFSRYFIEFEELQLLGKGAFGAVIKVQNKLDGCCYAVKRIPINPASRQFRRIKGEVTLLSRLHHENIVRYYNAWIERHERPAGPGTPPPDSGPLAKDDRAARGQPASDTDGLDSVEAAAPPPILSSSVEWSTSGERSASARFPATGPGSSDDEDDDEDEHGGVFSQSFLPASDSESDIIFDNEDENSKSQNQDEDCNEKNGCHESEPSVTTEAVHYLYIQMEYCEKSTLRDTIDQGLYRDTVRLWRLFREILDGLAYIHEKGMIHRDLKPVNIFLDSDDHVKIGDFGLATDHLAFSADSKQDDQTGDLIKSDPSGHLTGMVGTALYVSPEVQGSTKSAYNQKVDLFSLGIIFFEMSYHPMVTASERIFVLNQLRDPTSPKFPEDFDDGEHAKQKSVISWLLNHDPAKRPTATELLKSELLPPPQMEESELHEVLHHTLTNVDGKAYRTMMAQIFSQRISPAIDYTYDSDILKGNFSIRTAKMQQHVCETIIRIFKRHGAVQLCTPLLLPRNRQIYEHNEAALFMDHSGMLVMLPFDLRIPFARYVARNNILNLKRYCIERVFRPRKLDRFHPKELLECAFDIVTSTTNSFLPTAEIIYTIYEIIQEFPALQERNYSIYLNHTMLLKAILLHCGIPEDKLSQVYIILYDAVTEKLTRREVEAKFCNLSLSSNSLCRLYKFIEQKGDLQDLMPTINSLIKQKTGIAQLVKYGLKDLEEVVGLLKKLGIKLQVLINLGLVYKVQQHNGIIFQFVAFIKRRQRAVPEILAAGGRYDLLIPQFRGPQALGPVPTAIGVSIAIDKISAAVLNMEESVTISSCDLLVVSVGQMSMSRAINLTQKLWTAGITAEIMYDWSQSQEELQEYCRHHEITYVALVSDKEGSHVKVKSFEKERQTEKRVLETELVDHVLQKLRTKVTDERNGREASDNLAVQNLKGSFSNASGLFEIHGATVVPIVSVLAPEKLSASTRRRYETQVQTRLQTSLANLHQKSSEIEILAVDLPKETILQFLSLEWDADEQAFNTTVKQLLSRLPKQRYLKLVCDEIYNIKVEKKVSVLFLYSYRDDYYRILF
PERK kinase, sequence (Q9NZJ5 other isoform, or with tags, fused parts or gaps): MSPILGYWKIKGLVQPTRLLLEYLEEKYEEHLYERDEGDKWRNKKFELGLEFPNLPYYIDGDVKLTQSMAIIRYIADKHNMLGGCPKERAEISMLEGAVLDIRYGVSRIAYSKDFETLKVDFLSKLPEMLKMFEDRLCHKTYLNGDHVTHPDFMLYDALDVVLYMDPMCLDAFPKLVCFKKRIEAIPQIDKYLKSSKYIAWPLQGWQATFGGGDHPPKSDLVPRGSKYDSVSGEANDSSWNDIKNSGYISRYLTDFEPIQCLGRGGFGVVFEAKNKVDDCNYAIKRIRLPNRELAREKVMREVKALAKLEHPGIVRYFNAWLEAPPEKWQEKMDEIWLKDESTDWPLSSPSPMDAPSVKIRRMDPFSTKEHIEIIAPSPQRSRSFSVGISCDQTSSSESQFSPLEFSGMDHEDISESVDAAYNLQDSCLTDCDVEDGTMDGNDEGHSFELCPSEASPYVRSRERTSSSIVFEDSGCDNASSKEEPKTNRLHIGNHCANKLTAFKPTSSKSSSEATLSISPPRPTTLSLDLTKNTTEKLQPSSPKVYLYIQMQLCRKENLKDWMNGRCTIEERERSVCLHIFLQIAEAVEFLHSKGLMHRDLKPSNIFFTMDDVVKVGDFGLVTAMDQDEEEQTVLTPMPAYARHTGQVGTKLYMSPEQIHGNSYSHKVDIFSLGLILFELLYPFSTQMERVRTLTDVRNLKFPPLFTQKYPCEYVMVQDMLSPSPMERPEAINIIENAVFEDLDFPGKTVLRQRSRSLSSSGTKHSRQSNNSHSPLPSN

In the case of `CNc1ncc2cc(-c3cccc(NS(=O)(=O)c4ccc(Br)c(C(F)(F)F)c4)c3F)ccc2n1` [Example 71], the 50% inhibitory concentration (IC50) against PERK kinase and against GCN2 kinase was 1 to 10 µM throughout.

In the case of `CNc1ncc2cc(-c3cccc(NS(=O)(=O)c4cc(F)c(Br)cc4F)c3F)ccc2n1` [Example 72], the IC50 against PERK kinase and against GCN2 kinase was 0.1 to 0.5 µM in each case.

On to `CNc1ncc2cc(-c3c(F)ccc(NS(=O)(=O)c4cc(Cl)cnc4OC)c3F)c(NC)nc2n1` [Example 73], for which the IC50 against PERK kinase and at GCN2 kinase was 0.1 to 0.5 µM in each case.

Consider `CNc1ncc2cc(-c3cc(NS(=O)(=O)c4cc(Cl)cc(Cl)c4)c(F)cc3C)c(C)nc2n1` [Example 75], for which the values for the concentration for half-maximal inhibition (IC50) against PERK kinase and against GCN2 kinase were 0.1 to 0.5 µM and 0.5 to 1 µM, respectively.

`CNc1ncc2cc(-c3cc(NS(=O)(=O)c4cc(Cl)cnc4OC)ccc3C(F)(F)F)ccc2n1` [Example 76]: the IC50 against PERK kinase and against GCN2 kinase was 1 to 10 µM in each case.

As for `CNc1ncc2cc(-c3cc(NS(=O)(=O)c4cc(Cl)cnc4OC)ccc3C(F)(F)F)c(C)nc2n1` [Example 80], the figures for the IC50 against PERK kinase and against GCN2 kinase were 1 to 10 µM and 0.5 to 1 µM, respectively.

`CNc1ncc2cc(-c3cc(NS(=O)(=O)c4cc(Cl)cnc4OC)ccc3OC)ccc2n1` [Example 81]: the IC50 against PERK kinase and against GCN2 kinase was 1 to 10 µM each time.

In the case of `CNc1ncc2cc(-c3cc(NS(=O)(=O)c4cc(Cl)cnc4OC)ccc3OC)c(C)nc2n1` [Example 82], the IC50 at PERK kinase and against GCN2 kinase was 1 to 10 µM each time.

Regarding `CNc1ncc2cc(-c3cccc(NS(=O)(=O)c4cc(Cl)cc(OC)c4Cl)c3F)ccc2n1` [Example 83], the results for the IC50 against PERK kinase and against GCN2 kinase were not above 0.1 µM and 0.1 to 0.5 µM, respectively.

Consider `CNc1ncc2cc(-c3cccc(NS(=O)(=O)c4ccc(OC)c(C)c4)c3F)ccc2n1` [Example 91], for which the results for the IC50 at PERK kinase and on GCN2 kinase were 0.1 to 0.5 µM and 1 to 10 µM, respectively.

Consider `CNc1ncc2cc(-c3cc(Cl)cc(NS(=O)(=O)c4cc(Cl)cnc4OC)c3)c(NC)nc2n1` [Example 94], for which the half-maximal inhibitory concentration (IC50) was 1 to 10 µM against PERK kinase and 0.5 to 1 µM at GCN2 kinase.

In the case of `CNc1ncc2cc(-c3cccc(NS(=O)(=O)c4cc(Cl)cnc4OC)c3F)c(NC3COC3)nc2n1` [Example 98], the values for the concentration for half-maximal inhibition (IC50) at PERK kinase and against GCN2 kinase were 0.5 to 1 µM and 0.1 to 0.5 µM, respectively.

In the case of `CNc1ncc2cc(-c3cccc(NS(=O)(=O)c4cc(Cl)cnc4OC)c3F)c(NCC3COC3)nc2n1` [Example 99], the IC50 against PERK kinase and against GCN2 kinase was 0.1 to 0.5 µM in each case.

With `CNCCNc1nc2nc(NC)ncc2cc1-c1cccc(NS(=O)(=O)c2cc(Cl)cnc2OC)c1F` [Example 101], the IC50 against PERK kinase was 1 to 10 µM; on GCN2 kinase, 0.1 to 0.5 µM.

Consider `CNc1ncc2cc(-c3cc(F)cc(NS(=O)(=O)c4cc(Cl)cnc4OC)c3)c(OC)nc2n1` [Example 103], for which the 50% inhibitory concentration (IC50) at PERK kinase and on GCN2 kinase was 0.1 to 0.5 µM throughout.

With `CNc1nc2nc(N)ncc2cc1-c1cc(Cl)cc(NS(=O)(=O)c2cc(Cl)cnc2OC)c1` [Example 104], the half-maximal inhibitory concentration (IC50) against PERK kinase and on GCN2 kinase was 1 to 10 µM throughout.

`CNc1ncc2cc(-c3cc(F)cc(NS(=O)(=O)c4cc(Cl)cnc4OC)c3)c(NCCOC)nc2n1` [Example 105]: the half-inhibitory concentration (IC50) against PERK kinase fell in the range of 1 to 10 µM; at GCN2 kinase, 0.1 to 0.5 µM.

With `CNc1ncc2cc(-c3cc(F)cc(NS(=O)(=O)c4cc(Cl)cnc4OC)c3)c(NC[C@@H](C)OC)nc2n1` [Example 107], the values for the IC50 against PERK kinase and against GCN2 kinase were 1 to 10 µM and 0.5 to 1 µM, respectively.

For `CNc1ncc2cc(-c3cc(F)cc(NS(=O)(=O)c4cc(Cl)cnc4OC)c3)c(NC[C@H](C)OC)nc2n1` [Example 108], the IC50 fell in the range of 1 to 10 µM on PERK kinase and 0.5 to 1 µM against GCN2 kinase.

In the case of `CNc1ncc2cc(-c3cccc(NS(=O)(=O)c4cc(Cl)cc(C(N)=O)c4Cl)c3F)c(NC)nc2n1` [Example 112], the concentration for half-maximal inhibition (IC50) against PERK kinase and against GCN2 kinase was 1 to 10 µM each time.

As to `CNc1nc2nc(NCC(F)(F)F)ncc2cc1-c1cccc(NS(=O)(=O)c2cc(Cl)cnc2OC)c1F` [Example 116], the IC50 against PERK kinase was 0.1 to 0.5 µM; against GCN2 kinase it was not above 0.1 µM.

Regarding `CNc1nc2nc(NC3CCC3)ncc2cc1-c1cccc(NS(=O)(=O)c2cc(Cl)cnc2OC)c1F` [Example 118], the 50% inhibitory concentration (IC50) is 0.1 to 0.5 µM against PERK kinase and not above 0.1 µM on GCN2 kinase.

For `CNc1nc2nc(NC3CCCC3)ncc2cc1-c1cccc(NS(=O)(=O)c2cc(Cl)cnc2OC)c1F` [Example 119], the IC50 against PERK kinase is 0.1 to 0.5 µM; at GCN2 kinase, not above 0.1 µM.

For the molecule `CNc1ncc2cc(-c3cccc(NS(=O)(=O)c4cc(F)cnc4OC)c3F)c(NC)nc2n1` [Example 122], the IC50 is 0.1 to 0.5 µM at PERK kinase and not above 0.1 µM against GCN2 kinase.

On to `CNc1ncc2cc(-c3cccc(NS(=O)(=O)c4cc(Cl)cnc4OC4COC4)c3F)c(NC)nc2n1` [Example 125], for which the half-maximal inhibitory concentration (IC50) against PERK kinase was in the range of 0.5 to 1 µM; on GCN2 kinase, 0.1 to 0.5 µM.

For the molecule `COc1cc(OC)c(S(=O)(=O)Nc2cccc(-c3cc4cnc(N)nc4nc3OC)c2F)cc1Cl` [Example 126], the IC50 against PERK kinase was 0.5 to 1 µM; against GCN2 kinase, 1 to 10 µM.

For `CNc1ncc2cc(-c3cccc(NS(=O)(=O)c4cc(C(C)=O)ccc4Cl)c3F)c(NC)nc2n1` [Example 133], the half-inhibitory concentration (IC50) at PERK kinase and at GCN2 kinase was 0.1 to 0.5 µM each time.

As for `CNc1ncc2cc(-c3cccc(NS(=O)(=O)c4ccc(Cl)nc4OC)c3F)c(NC)nc2n1` [Example 142], the concentration for half-maximal inhibition (IC50) on PERK kinase and on GCN2 kinase was 0.1 to 0.5 µM in each case.

Turning to `CNc1ncc2cc(-c3ccnc(NS(=O)(=O)c4cc(Cl)cnc4OC)c3F)c(NC)nc2n1` [Example 144], the IC50 against PERK kinase and against GCN2 kinase was 0.1 to 0.5 µM each time.

On to `CNc1ncc2cc(-c3cccc(NS(=O)(=O)c4cc(C#N)ccc4OC)c3F)c(NC)nc2n1` [Example 145], for which the IC50 fell in the range of 0.5 to 1 µM against PERK kinase and 0.1 to 0.5 µM at GCN2 kinase.

As to `CNc1ncc2cc(-c3cccc(NS(=O)(=O)c4cc(Cl)cnc4OC)c3F)c(OCCOC)nc2n1` [Example 147], the values for the IC50 on PERK kinase and against GCN2 kinase were 0.1 to 0.5 µM and not above 0.1 µM, respectively.

With `CNc1ncc2cc(-c3cccc(NS(=O)(=O)c4cc(C5CC5)cnc4OC)c3F)c(NC)nc2n1` [Example 153], the values for the IC50 against PERK kinase and at GCN2 kinase were 0.1 to 0.5 µM and not above 0.1 µM, respectively.

As for `CNc1ncc2cc(-c3cccc(NS(=O)(=O)c4cc(Cl)cnc4OC4CC4)c3F)c(NC)nc2n1` [Example 154], the IC50 against PERK kinase and on GCN2 kinase was 0.1 to 0.5 µM in each case.

For `CNc1nc2nc(N)ncc2cc1-c1ccnc(NS(=O)(=O)c2cc(Cl)cnc2OC)c1F` [Example 155], the concentration for half-maximal inhibition (IC50) against PERK kinase and at GCN2 kinase was 0.1 to 0.5 µM in each case.

`CNc1ncc2cc(-c3cccc(NS(=O)(=O)c4cccnc4OC)c3F)c(NC)nc2n1` [Example 156]: the IC50 against PERK kinase is 0.5 to 1 µM; at GCN2 kinase, 0.1 to 0.5 µM.

For the molecule `CNc1ncc2cc(-c3cccc(NS(=O)(=O)c4cc(Cl)c[nH]c4=O)c3F)c(NC)nc2n1` [Example 160], the IC50 lay within 1 to 10 µM against PERK kinase and 0.5 to 1 µM on GCN2 kinase.

For the molecule `CNc1ncc2cc(-c3cccc(NS(=O)(=O)c4ccc(Cl)cc4OC)c3F)c(NC)nc2n1` [Example 161], the IC50 at PERK kinase and against GCN2 kinase was 0.1 to 0.5 µM throughout.

In the case of `CNc1ncc2cc(-c3cc(NS(=O)(=O)c4cc(Cl)cnc4OC)ccn3)ccc2n1` [Example 163], the IC50 against PERK kinase and on GCN2 kinase was 1 to 10 µM in each case.

On to `CNc1ncc2cc(-c3cccc(NS(=O)(=O)c4ncccc4OC)c3F)c(NC)nc2n1` [Example 166], for which the IC50 on PERK kinase and against GCN2 kinase was 1 to 10 µM in each case.

As for `CNc1ncc2cc(-c3cccc(NS(=O)(=O)c4cc(Br)cnc4OC)c3F)c(NC)nc2n1` [Example 169], the IC50 at PERK kinase was 0.1 to 0.5 µM; on GCN2 kinase it was not above 0.1 µM.

For `CNC(=O)c1cc(Cl)cc(S(=O)(=O)Nc2cccc(-c3cc4cnc(NC)nc4nc3NC)c2F)c1Cl` [Example 170], the concentration for half-maximal inhibition (IC50) against PERK kinase and against GCN2 kinase was 1 to 10 µM throughout.
